Biological target: MtACS (Mycobacterium tuberculosis acetyl-CoA synthetase) (Mycobacterium tuberculosis, UniProt P9WQD1)
Assay: biochemical

MtACS (Mycobacterium tuberculosis acetyl-CoA synthetase), sequence (P9WQD1 2-651): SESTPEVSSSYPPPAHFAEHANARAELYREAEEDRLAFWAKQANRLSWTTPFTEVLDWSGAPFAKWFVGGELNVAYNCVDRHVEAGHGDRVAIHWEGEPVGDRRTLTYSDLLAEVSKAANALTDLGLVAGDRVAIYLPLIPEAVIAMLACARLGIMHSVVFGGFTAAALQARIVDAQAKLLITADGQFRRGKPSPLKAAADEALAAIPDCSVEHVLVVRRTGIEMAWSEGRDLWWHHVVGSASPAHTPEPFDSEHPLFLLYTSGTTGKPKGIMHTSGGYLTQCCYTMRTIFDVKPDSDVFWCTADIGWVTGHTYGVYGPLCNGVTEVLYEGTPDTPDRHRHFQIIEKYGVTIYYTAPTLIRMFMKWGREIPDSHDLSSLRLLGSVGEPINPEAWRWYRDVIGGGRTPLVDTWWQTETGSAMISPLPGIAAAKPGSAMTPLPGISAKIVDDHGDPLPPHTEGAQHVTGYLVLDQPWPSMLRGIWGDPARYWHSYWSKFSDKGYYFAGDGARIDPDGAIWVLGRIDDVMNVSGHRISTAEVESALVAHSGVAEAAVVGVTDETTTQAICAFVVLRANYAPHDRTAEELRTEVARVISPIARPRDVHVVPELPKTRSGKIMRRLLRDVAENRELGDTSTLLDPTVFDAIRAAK

**Q.** With Nc1ncnc2c1ncn2[C@@H]1O[C@H](COP(=O)(O)CP(=O)(O)OP(=O)(O)O)[C@@H](O)[C@H]1O [AMPCPP] as the compound, how does the Ki read?
**A.** The Ki was 5 ± 0.8 mM.

— PMC4066452 (Archives of biochemistry and biophysics, 2014)
